Source: ChEMBL document CHEMBL5380794, “Discovery of a Potent and Selective STAT5 PROTAC Degrader with Strong Antitumor Activity In Vivo in Acute Myeloid Leukemia” (J Med Chem, 2023)

These compounds were tested against T1, Signal transducer and activator of transcription 5B (Homo sapiens, UniProt P51692) (assay: Binding affinity to STAT5B (unknown origin) assessed as inhibition constant by FP assay).
T1 sequence (P51692 whole entry): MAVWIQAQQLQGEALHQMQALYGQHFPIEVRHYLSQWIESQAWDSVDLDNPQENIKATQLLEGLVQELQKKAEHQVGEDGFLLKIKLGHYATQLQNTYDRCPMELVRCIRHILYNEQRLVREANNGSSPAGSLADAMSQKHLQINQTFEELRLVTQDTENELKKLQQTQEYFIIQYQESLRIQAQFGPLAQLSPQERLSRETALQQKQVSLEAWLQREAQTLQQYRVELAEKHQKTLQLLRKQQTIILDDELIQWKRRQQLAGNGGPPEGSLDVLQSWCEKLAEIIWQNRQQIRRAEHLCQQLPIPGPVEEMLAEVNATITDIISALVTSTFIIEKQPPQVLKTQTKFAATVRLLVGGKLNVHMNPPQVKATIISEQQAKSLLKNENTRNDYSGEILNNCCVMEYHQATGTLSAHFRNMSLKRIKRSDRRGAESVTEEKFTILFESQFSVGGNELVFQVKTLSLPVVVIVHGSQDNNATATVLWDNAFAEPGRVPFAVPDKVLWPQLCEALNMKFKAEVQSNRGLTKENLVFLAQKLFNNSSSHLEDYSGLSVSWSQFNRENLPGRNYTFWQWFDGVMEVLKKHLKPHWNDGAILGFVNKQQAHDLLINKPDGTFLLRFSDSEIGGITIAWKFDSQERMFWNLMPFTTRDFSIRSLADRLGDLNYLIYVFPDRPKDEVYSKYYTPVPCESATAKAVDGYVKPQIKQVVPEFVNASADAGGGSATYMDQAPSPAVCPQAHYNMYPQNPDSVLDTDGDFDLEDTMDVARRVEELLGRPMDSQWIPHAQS

| SMILES | Ki |
| --- | --- |
| CC(C)(C)[C@H](NC(=O)c1cc2cc(C(F)(F)P(=O)(O)O)ccc2s1)C(=O)N1CCC[C@H]1C(=O)N1CCCOCC1 | > 10 µM |
| C/C(=C\C(=O)N[C@H](C(=O)N1CCC[C@H]1C(=O)N1CCCc2ccccc21)C(C)(C)C)c1ccc(C(F)(F)P(=O)(O)O)cc1 | > 10 µM |
| CC(C)(C)[C@H](NC(=O)c1cc2cc(C(F)(F)P(=O)(O)O)ccc2s1)C(=O)N1CCC[C@H]1C(=O)N1CCC2(CCC2)C1 | > 10 µM |

Further lines, results first:

| Ki | SMILES |
| --- | --- |
| 6.8 µM | CN(C)C(=O)CCN(C(=O)[C@@H]1CCCN1C(=O)[C@@H](NC(=O)c1cc2cc(C(F)(F)P(=O)(O)O)ccc2s1)C(C)(C)C)c1ccccc1 |
| 2 µM | CN(C)C(=O)CCN(C(=O)[C@@H]1CCCN1C(=O)[C@@H](NC(=O)c1cc2cc(C(F)(F)P(=O)(O)O)ccc2s1)C(C)(C)C)c1ccc2occc2c1 |
| 4.2 µM | CN(C)C(=O)CCN(C(=O)[C@@H]1CCCN1C(=O)[C@@H](NC(=O)c1cc2cc(C(F)(F)P(=O)(O)O)ccc2s1)C(C)(C)C)c1ccc(Cl)cc1 |
| 1.3 µM | CN(C)C(=O)CCN(C(=O)[C@@H]1CCCN1C(=O)[C@@H](NC(=O)c1cc2cc(C(F)(F)P(=O)(O)O)ccc2s1)C(C)(C)C)c1ccc2scnc2c1 |
| 2.1 µM | CN(C)C(=O)CCN(C(=O)[C@@H]1CCCN1C(=O)[C@@H](NC(=O)c1cc2cc(C(F)(F)P(=O)(O)O)ccc2s1)C(C)(C)C)c1ccc(Br)cc1 |
| 6.2 µM | CN(C(=O)[C@@H]1CCCN1C(=O)[C@@H](NC(=O)c1cc2cc(C(F)(F)P(=O)(O)O)ccc2s1)C(C)(C)C)c1ccccc1 |
| > 10 µM | CC(C)(C)[C@H](NC(=O)c1cc2cc(C(F)(F)P(=O)(O)O)ccc2s1)C(=O)N1CCC[C@H]1C(=O)Nc1ccccc1 |
| 7 µM | CN(C)C(=O)CCN(C(=O)[C@@H]1CCCN1C(=O)[C@@H](NC(=O)c1cc2cc(C(F)(F)P(=O)(O)O)ccc2s1)C(C)(C)C)c1cccc(Br)c1 |
| 6.2 µM | CC(C)(C)[C@H](NC(=O)c1cc2cc(C(F)(F)P(=O)(O)O)ccc2s1)C(=O)N1CCC[C@H]1C(=O)N1CCCc2ccccc21 |

Each compound was assayed against T2, Signal transducer and activator of transcription 5A (Homo sapiens, UniProt P42229) (assay: Induction of STAT5 degradation in human SKNO-1 cells measured for 18 hrs by Western blot analysis).
T2 sequence (P42229 whole entry): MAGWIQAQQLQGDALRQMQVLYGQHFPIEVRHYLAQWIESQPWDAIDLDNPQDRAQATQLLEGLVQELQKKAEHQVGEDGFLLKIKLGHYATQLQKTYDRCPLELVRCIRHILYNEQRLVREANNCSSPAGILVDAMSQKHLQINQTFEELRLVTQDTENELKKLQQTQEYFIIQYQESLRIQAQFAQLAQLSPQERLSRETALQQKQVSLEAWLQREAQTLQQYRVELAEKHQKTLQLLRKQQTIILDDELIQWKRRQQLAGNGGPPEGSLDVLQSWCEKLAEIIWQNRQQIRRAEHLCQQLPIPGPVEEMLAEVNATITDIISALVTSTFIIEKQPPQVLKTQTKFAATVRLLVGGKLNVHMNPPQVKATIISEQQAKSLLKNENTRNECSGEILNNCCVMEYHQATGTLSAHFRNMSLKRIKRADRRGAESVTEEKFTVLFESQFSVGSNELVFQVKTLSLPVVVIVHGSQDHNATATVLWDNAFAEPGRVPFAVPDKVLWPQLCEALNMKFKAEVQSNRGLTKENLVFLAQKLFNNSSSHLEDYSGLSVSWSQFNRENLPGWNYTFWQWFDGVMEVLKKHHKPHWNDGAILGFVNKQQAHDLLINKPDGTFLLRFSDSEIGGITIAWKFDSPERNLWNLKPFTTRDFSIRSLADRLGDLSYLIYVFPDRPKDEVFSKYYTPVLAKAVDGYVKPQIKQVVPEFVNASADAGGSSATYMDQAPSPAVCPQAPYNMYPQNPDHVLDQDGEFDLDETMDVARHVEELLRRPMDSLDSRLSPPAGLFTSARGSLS
Type: cell-based

| SMILES | DC50 |
| --- | --- |
| CC(C)(C)[C@H](NC(=O)c1cc2cc(C(F)(F)P(=O)(O)O)ccc2s1)C(=O)N1CCC[C@H]1C(=O)N(CCC(=O)NCCCC#Cc1cccc2c1CN(C1CCC(=O)NC1=O)C2=O)c1cccc2sccc12 (stereo not given in full) | > 5 µM |
| CN(CCCC#Cc1cccc2c1CN(C1CCC(=O)NC1=O)C2=O)C(=O)CCN(C(=O)[C@@H]1CCCN1C(=O)[C@@H](NC(=O)c1cc2cc(C(F)(F)P(=O)(O)O)ccc2s1)C(C)(C)C)c1ccc2occc2c1 (stereo not given in full) | 0.2 µM |
| CC(C)(C)[C@H](NC(=O)c1cc2cc(C(F)(F)P(=O)(O)O)ccc2s1)C(=O)N1CCC[C@H]1C(=O)N(CCCCCCCC#Cc1cccc2c1CN(C1CCC(=O)NC1=O)C2=O)c1ccc(-c2nccs2)cc1 (stereo not given in full) | > 5 µM |
| CC(C)(C)[C@H](NC(=O)c1cc2cc(C(F)(F)P(=O)(O)O)ccc2s1)C(=O)N1CCC[C@H]1C(=O)N(CCC(=O)NCCCC#Cc1cccc2c1CN(C1CCC(=O)NC1=O)C2=O)c1ccc(S(C)(=O)=O)cc1 (stereo not given in full) | > 5 µM |
| Cc1ccc(N(CCC(=O)NCCCC#Cc2cccc3c2CN(C2CCC(=O)NC2=O)C3=O)C(=O)[C@@H]2CCCN2C(=O)[C@@H](NC(=O)c2cc3cc(C(F)(F)P(=O)(O)O)ccc3s2)C(C)(C)C)cc1 (stereo not given in full) | 0.31 µM |
| CC(C)(C)[C@H](NC(=O)c1cc2cc(C(F)(F)P(=O)(O)O)ccc2s1)C(=O)N1CCC[C@H]1C(=O)N(CCC(=O)NCCCC#Cc1cccc2c1CN(C1CCC(=O)NC1=O)C2=O)c1cccc(C(F)(F)F)c1 (stereo not given in full) | > 5 µM |
| CC(C)(C)[C@H](NC(=O)c1cc2cc(C(F)(F)P(=O)(O)O)ccc2s1)C(=O)N1CCC[C@H]1C(=O)N(CCC(=O)NCCCC#Cc1cccc2c1CN(C1CCC(=O)NC1=O)C2=O)c1ccc(C(F)(F)F)cc1 (stereo not given in full) | 2 µM |
| CN(CCCC#Cc1cccc2c1CN(C1CCC(=O)NC1=O)C2=O)C(=O)CCN(C(=O)[C@@H]1CCCN1C(=O)[C@@H](NC(=O)c1cc2cc(C(F)(F)P(=O)(O)O)ccc2s1)C(C)(C)C)c1ccc2ccccc2c1 (stereo not given in full) | 0.13 µM |
| CC(C)(C)[C@H](NC(=O)c1cc2cc(C(F)(F)P(=O)(O)O)ccc2s1)C(=O)N1CCC[C@H]1C(=O)N(CCC(=O)NCCCC#Cc1cccc2c1CN(C1CCC(=O)NC1=O)C2=O)c1ccc2ccccc2c1 (stereo not given in full) | 0.21 µM |
| CN(CCCC#Cc1cccc2c1CN(C1CCC(=O)NC1=O)C2=O)C(=O)CCN(C(=O)[C@@H]1CCCN1C(=O)[C@@H](NC(=O)c1cc2cc(C(F)(F)P(=O)(O)O)ccc2s1)C(C)(C)C)c1ccc2sccc2c1 (stereo not given in full) | 0.13 µM |
| CC(C)(C)[C@H](NC(=O)c1cc2cc(C(F)(F)P(=O)(O)O)ccc2s1)C(=O)N1CCC[C@H]1C(=O)N(CCC(=O)NCCCC#Cc1cccc2c1CN(C1CCC(=O)NC1=O)C2=O)c1ccc(-c2nccs2)cc1 (stereo not given in full) | 0.13 µM |
| CC(C)(C)[C@H](NC(=O)c1cc2cc(C(F)(F)P(=O)(O)O)ccc2s1)C(=O)N1CCC[C@H]1C(=O)N(CCC(=O)NCCCC#Cc1cccc2c1CN(C1CCC(=O)NC1=O)C2=O)c1ccc(Cl)cc1 (stereo not given in full) | 2.1 µM |
| CC(C)(C)[C@H](NC(=O)c1cc2cc(C(F)(F)P(=O)(O)O)ccc2s1)C(=O)N1CCC[C@H]1C(=O)N(CCC(=O)NCCCC#Cc1cccc2c1CN(C1CCC(=O)NC1=O)C2=O)c1ccccc1 (stereo not given in full) | > 5 µM |
| CC(C)(C)[C@H](NC(=O)c1cc2cc(C(F)(F)P(=O)(O)O)ccc2s1)C(=O)N1CCC[C@H]1C(=O)N(CCC(=O)NCCCC#Cc1cccc2c1CN(C1CCC(=O)NC1=O)C2=O)c1cccc(C#N)c1 (stereo not given in full) | > 5 µM |
| CC(C)(C)[C@H](NC(=O)c1cc2cc(C(F)(F)P(=O)(O)O)ccc2s1)C(=O)N1CCC[C@H]1C(=O)N(CCC(=O)NCCCC#Cc1cccc2c1CN(C1CCC(=O)NC1=O)C2=O)c1ccc(I)cc1 (stereo not given in full) | 0.53 µM |
| CC(C)(C)[C@H](NC(=O)c1cc2cc(C(F)(F)P(=O)(O)O)ccc2s1)C(=O)N1CCC[C@H]1C(=O)N(CCC(=O)NCCCC#Cc1cccc2c1CN(C1CCC(=O)NC1=O)C2=O)c1ccc(F)cc1 (stereo not given in full) | > 5 µM |
| CC(C)(C)[C@H](NC(=O)c1cc2cc(C(F)(F)P(=O)(O)O)ccc2s1)C(=O)N1CCC[C@H]1C(=O)N(CCC(=O)NCCCC#Cc1cccc2c1CN(C1CCC(=O)NC1=O)C2=O)c1ccc2occc2c1 (stereo not given in full) | 0.33 µM |
| CC(C)(C)c1ccc(N(CCC(=O)NCCCC#Cc2cccc3c2CN(C2CCC(=O)NC2=O)C3=O)C(=O)[C@@H]2CCCN2C(=O)[C@@H](NC(=O)c2cc3cc(C(F)(F)P(=O)(O)O)ccc3s2)C(C)(C)C)cc1 (stereo not given in full) | > 5 µM |
| CC(C)(C)[C@H](NC(=O)c1cc2cc(C(F)(F)P(=O)(O)O)ccc2s1)C(=O)N1CCC[C@H]1C(=O)N(CCC(=O)NCCCC#Cc1cccc2c1CN(C1CCC(=O)NC1=O)C2=O)c1ccc(C#N)cc1 (stereo not given in full) | > 5 µM |
| CC(C)(C)[C@H](NC(=O)c1cc2cc(C(F)(F)P(=O)(O)O)ccc2s1)C(=O)N1CCC[C@H]1C(=O)N(CCC(=O)NCCCC#Cc1cccc2c1CN(C1CCC(=O)NC1=O)C2=O)c1ccc(-c2cccs2)cc1 (stereo not given in full) | 0.21 µM |
| CC(C)(C)[C@H](NC(=O)c1cc2cc(C(F)(F)P(=O)(O)O)ccc2s1)C(=O)N1CCC[C@H]1C(=O)N(CCC(=O)NCCCC#Cc1cccc2c1CN(C1CCC(=O)NC1=O)C2=O)c1ccc(Cl)c(F)c1 (stereo not given in full) | > 5 µM |

Second part, the compound after the results:

| DC50 | SMILES |
| --- | --- |
| > 5 µM | CC(C)(C)[C@H](NC(=O)c1cc2cc(C(F)(F)P(=O)(O)O)ccc2s1)C(=O)N1CCC[C@H]1C(=O)N(CCC(=O)NCCCC#Cc1cccc2c1CN(C1CCC(=O)NC1=O)C2=O)c1ccc2ncsc2c1 (stereo not given in full) |
| 0.33 µM | CN(CCCC#Cc1cccc2c1CN(C1CCC(=O)NC1=O)C2=O)C(=O)CCN(C(=O)[C@@H]1CCCN1C(=O)[C@@H](NC(=O)c1cc2cc(C(F)(F)P(=O)(O)O)ccc2s1)C(C)(C)C)c1ccc2scnc2c1 (stereo not given in full) |
